CC(C)[C@@H](C)[C@@H](O)[C@H](O)[C@@H](C)[C@H]1CC[C@H]2[C@@H]3COC(=O)[C@H]4C[C@H](O)[C@H](O)C[C@]4(C)[C@H]3CC[C@]12C
solubility (mole fraction)
Settings | 283.15 K | 288.15 K | 293.15 K | 298.15 K | 303.15 K | 308.15 K | 313.15 K | 318.15 K | 323.15 K
in acetone | 0.00144 | 0.00176 | 0.00207 | 0.0024 | 0.00273 | 0.00303 | 0.00334 | 0.00365 | 0.00405
in acetonitrile | 0.000162 | 0.000206 | 0.000258 | 0.000322 | 0.000399 | 0.000491 | 0.0006 | 0.000728 | 0.000879
in ethanol | 0.00219 | 0.00241 | 0.00296 | 0.0032 | 0.00356 | 0.00409 | 0.00476 | 0.00551 | 0.00634
in isopropanol | 0.00136 | 0.00169 | 0.00209 | 0.00256 | 0.00312 | 0.00396 | 0.00464 | 0.00564 | 0.00667
